Article PMC4450297, “Screening Active Compounds from Garcinia Species Native to China Reveals Novel Compounds Targeting the STAT/JAK Signaling Pathway” (BioMed Research International, 2015)
Where two headings read alike, the source gives them in different places.

Assays:
Experiment in all cases: Cell panel screen (CellTiter-Glo)
Assay type in all cases: cell-based, human
A704 = conditions: Homo sapiens, read-out: Percent Inhibition
Summary of the method: (§1)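 Percent growth inhibition at one concentration (20 μM final) after 72 h treatment, derived from cellular ATP luminescence and normalised between DMSO-treated cells and wells lacking cells.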

BT-474 = conditions: Homo sapiens, read-out: Percent Inhibition
Summary of the method: as §1

BT-549 = conditions: Homo sapiens, read-out: Percent Inhibition
Summary of the method: as §1

Bel-7402 = conditions: Homo sapiens, read-out: Percent Inhibition
Summary of the method: as §1

C3A = conditions: Homo sapiens, read-out: Percent Inhibition
Summary of the method: as §1

C8166 = conditions: Homo sapiens, read-out: Percent Inhibition
Summary of the method: as §1

CCF-STTG1 = conditions: Homo sapiens, read-out: Percent Inhibition
Summary of the method: as §1

CW-2 = conditions: Homo sapiens, read-out: Percent Inhibition
Summary of the method: as §1

ChaGo-K-1 = conditions: Homo sapiens, read-out: Percent Inhibition
Summary of the method: as §1

HCC1395 = conditions: Homo sapiens, read-out: Percent Inhibition
Summary of the method: as §1

HCC1569 = conditions: Homo sapiens, read-out: Percent Inhibition
Summary of the method: as §1

HCC1599 = conditions: Homo sapiens, read-out: Percent Inhibition
Summary of the method: as §1

HEC-1-A = conditions: Homo sapiens, read-out: Percent Inhibition
Summary of the method: as §1

HGC-27 = conditions: Homo sapiens, read-out: Percent Inhibition
Summary of the method: as §1

HPAF-II = conditions: Homo sapiens, read-out: Percent Inhibition
Summary of the method: as §1

J82 = conditions: Homo sapiens, read-out: Percent Inhibition
Summary of the method: as §1

MSTO-211-H = conditions: Homo sapiens, read-out: Percent Inhibition
Summary of the method: as §1

NCI-H1770 = conditions: Homo sapiens, read-out: Percent Inhibition
Summary of the method: as §1

NCI-H2347 = conditions: Homo sapiens, read-out: Percent Inhibition
Summary of the method: as §1

NCI-H2405 = conditions: Homo sapiens, read-out: Percent Inhibition
Summary of the method: as §1

NCI-H28 = conditions: Homo sapiens, read-out: Percent Inhibition
Summary of the method: as §1

Panc 03.27 = conditions: Homo sapiens, read-out: Percent Inhibition
Summary of the method: as §1

RL95 = conditions: Homo sapiens, read-out: Percent Inhibition
Summary of the method: as §1

SW13 = conditions: Homo sapiens, read-out: Percent Inhibition
Summary of the method: as §1

T47D = conditions: Homo sapiens, read-out: Percent Inhibition
Summary of the method: as §1

T98G = conditions: Homo sapiens, read-out: Percent Inhibition
Summary of the method: as §1

TCCSUP = conditions: Homo sapiens, TCC-SUP, read-out: Percent Inhibition
Summary of the method: as §1

ZR-75-30 = conditions: Homo sapiens, read-out: Percent Inhibition
Summary of the method: as §1

CC(C)=CCC/C(C)=C/Cc1c(O)c(CC=C(C)C)c2c(c1O)C(=O)C1=C[C@@H]3C[C@H]4C(C)(C)O[C@@](C/C=C(\C)C(=O)O)(C3=O)[C@@]14O2 [GB63]
inhibition at 20 µM (A704; A704 (Kidney), 20 micromolar, 72 hrs): 99%
inhibition at 20 µM (BT-474; BT-474 (Breast), 20 micromolar, 72 hrs): 99%
inhibition at 20 µM (BT-549; BT-549 (Breast), 20 micromolar, 72 hrs): 99%
inhibition at 20 µM (Bel-7402; Bel-7402 (Liver), 20 micromolar, 72 hrs): 99%
inhibition at 20 µM (C3A; C3A (Liver), 20 micromolar, 72 hrs): 99%
inhibition at 20 µM (C8166; C8166 (Leukemia), 20 micromolar, 72 hrs): 100%
inhibition at 20 µM (CCF-STTG1; CCF-STTG1 (Brain), 20 micromolar, 72 hrs): 99%
inhibition at 20 µM (CW-2; CW-2 (Colon), 20 micromolar, 72 hrs): 99%
inhibition at 20 µM (ChaGo-K-1; ChaGo-K-1 (Lung), 20 micromolar, 72 hrs): 100%
inhibition at 20 µM (HCC1395; HCC1395 (Breast), 20 micromolar, 72 hrs): 99%
inhibition at 20 µM (HCC1569; HCC1569 (Breast), 20 micromolar, 72 hrs): 99%
inhibition at 20 µM (HCC1599; HCC1599 (Breast), 20 micromolar, 72 hrs): 99%
inhibition at 20 µM (HEC-1-A; HEC-1-A (Uterus), 20 micromolar, 72 hrs): 99%
inhibition at 20 µM (HGC-27; HGC-27 (Stomach), 20 micromolar, 72 hrs): 99%
inhibition at 20 µM (HPAF-II; HPAF-II (Pancreas), 20 micromolar, 72 hrs): 99%
inhibition at 20 µM (J82; J82 (Urinary bladder), 20 micromolar, 72 hrs): 99%
inhibition at 20 µM (MSTO-211-H; MSTO-211-H (Lung), 20 micromolar, 72 hrs): 99%
inhibition at 20 µM (NCI-H1770; NCI-H1770 (Lung), 20 micromolar, 72 hrs): 99%
inhibition at 20 µM (NCI-H2347; NCI-H2347 (Lung), 20 micromolar, 72 hrs): 98%
inhibition at 20 µM (NCI-H2405; NCI-H2405 (Lung), 20 micromolar, 72 hrs): 99%
inhibition at 20 µM (NCI-H28; NCI-H28 (Lung), 20 micromolar, 72 hrs): 99%
inhibition at 20 µM (Panc 03.27; PANC-03-27, Panc 03.27 (Pancreas), 20 micromolar, 72 hrs): 99%
inhibition at 20 µM (RL95; RL95 (Uterus), 20 micromolar, 72 hrs): 99%
inhibition at 20 µM (SW13; SW13 (Adrenal gland), 20 micromolar, 72 hrs): 99%
inhibition at 20 µM (T47D; T47D (Breast), 20 micromolar, 72 hrs): 99%
inhibition at 20 µM (T98G; T98G (Brain), 20 micromolar, 72 hrs): 99%
inhibition at 20 µM (TCCSUP; TCCSUP (Urinary bladder), 20 micromolar, 72 hrs): 99%
inhibition at 20 µM (ZR-75-30; ZR-75-30 (Breast), 20 micromolar, 72 hrs): 99%

CC(C)=CCC/C(C)=C/Cc1c(O)c(CC=C(C)C)c2c(c1O)C(=O)C1=C[C@@H]3C[C@H]4C(C)(C)O[C@@](CC=C(C)C)(C3=O)[C@@]14O2 [GB32]
inhibition at 20 µM (A704; A704, 72 h): 99%
inhibition at 20 µM (BT-474; BT-474, 72 h): 99%
inhibition at 20 µM (BT-549; BT-549, 72 h): 99%
inhibition at 20 µM (Bel-7402; Bel-7402, 72 h): 99%
inhibition at 20 µM (C3A; C3A, 72 h): 99%
inhibition at 20 µM (C8166; C8166, 72 h): 99%
inhibition at 20 µM (CCF-STTG1; CCF-STTG1, 72 h): 99%
inhibition at 20 µM (CW-2; CW-2, 72 h): 99%
inhibition at 20 µM (ChaGo-K-1; ChaGo-K-1, 72 h): 99%
inhibition at 20 µM (HCC1395; HCC1395, 72 h): 99%
inhibition at 20 µM (HCC1569; HCC1569, 72 h): 99%
inhibition at 20 µM (HCC1599; HCC1599, 72 h): 100%
inhibition at 20 µM (HEC-1-A; HEC-1-A, 72 h): 99%
inhibition at 20 µM (HGC-27; HGC-27, 72 h): 99%
inhibition at 20 µM (HPAF-II; HPAF-II, 72 h): 99%
inhibition at 20 µM (J82; J82, 72 h): 99%
inhibition at 20 µM (MSTO-211-H; MSTO-211H, 72 h): 99%
inhibition at 20 µM (NCI-H1770; NCI-H1770, 72 h): 99%
inhibition at 20 µM (NCI-H2347; NCI-H2347, 72 h): 98%
inhibition at 20 µM (NCI-H2405; NCI-H2405, 72 h): 99%
inhibition at 20 µM (NCI-H28; NCI-H28, 72 h): 99%
inhibition at 20 µM (Panc 03.27; PANC-03-27, 72 h): 99%
inhibition at 20 µM (RL95; 72 h): 99%
inhibition at 20 µM (SW13; SW13, 72 h): 99%
inhibition at 20 µM (T47D; T47D, 72 h): 99%
inhibition at 20 µM (T98G; T98G, 72 h): 99%
inhibition at 20 µM (TCCSUP; 72 h): 99%
inhibition at 20 µM (ZR-75-30; ZR-75-30, 72 h): 99%
